# Source: BindingDB's records for doi:10.1021/jm801354e (University of Illinois At Chicago, 2009)
# Counter-ions that a name gives are not always drawn.
# Columns and labels:
# [1] = biological target: T1, 5-hydroxytryptamine receptor 2A (Homo sapiens, UniProt P28223); experiment: Agonist activity at human 5HT2A receptor expressed in HEK293 cells assessed as calcium flux by FLIPR assay
# [2] = biological target: T2, 5-hydroxytryptamine receptor 2B (Homo sapiens, UniProt P41595); experiment: Agonist activity at human 5HT2B receptor expressed in HEK293 cells assessed as calcium flux by FLIPR assay
# T2 sequence (P41595 whole entry): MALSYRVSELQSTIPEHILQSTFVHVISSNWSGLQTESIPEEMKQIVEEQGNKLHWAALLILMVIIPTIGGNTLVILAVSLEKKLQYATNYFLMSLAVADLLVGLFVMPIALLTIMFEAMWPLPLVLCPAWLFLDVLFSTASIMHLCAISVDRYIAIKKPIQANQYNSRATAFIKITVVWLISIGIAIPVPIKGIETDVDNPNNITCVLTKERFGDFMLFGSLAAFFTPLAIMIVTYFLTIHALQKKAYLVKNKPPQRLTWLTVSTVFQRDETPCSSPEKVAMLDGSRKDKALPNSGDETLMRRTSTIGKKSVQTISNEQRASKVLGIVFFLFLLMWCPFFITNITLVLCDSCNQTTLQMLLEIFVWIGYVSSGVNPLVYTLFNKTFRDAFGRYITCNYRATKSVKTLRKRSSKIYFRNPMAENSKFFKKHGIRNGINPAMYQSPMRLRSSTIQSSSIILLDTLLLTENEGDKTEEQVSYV
# [3] = biological target: T2, 5-hydroxytryptamine receptor 2B; experiment: Displacement of [3H]LSD from human 5HT2B receptor
# [4] = biological target: Sodium-dependent noradrenaline transporter (Homo sapiens, UniProt P23975); experiment: Displacement of [3H]nisoxetine from NET
# Sequence of Sodium-dependent noradrenaline transporter (P23975 whole entry): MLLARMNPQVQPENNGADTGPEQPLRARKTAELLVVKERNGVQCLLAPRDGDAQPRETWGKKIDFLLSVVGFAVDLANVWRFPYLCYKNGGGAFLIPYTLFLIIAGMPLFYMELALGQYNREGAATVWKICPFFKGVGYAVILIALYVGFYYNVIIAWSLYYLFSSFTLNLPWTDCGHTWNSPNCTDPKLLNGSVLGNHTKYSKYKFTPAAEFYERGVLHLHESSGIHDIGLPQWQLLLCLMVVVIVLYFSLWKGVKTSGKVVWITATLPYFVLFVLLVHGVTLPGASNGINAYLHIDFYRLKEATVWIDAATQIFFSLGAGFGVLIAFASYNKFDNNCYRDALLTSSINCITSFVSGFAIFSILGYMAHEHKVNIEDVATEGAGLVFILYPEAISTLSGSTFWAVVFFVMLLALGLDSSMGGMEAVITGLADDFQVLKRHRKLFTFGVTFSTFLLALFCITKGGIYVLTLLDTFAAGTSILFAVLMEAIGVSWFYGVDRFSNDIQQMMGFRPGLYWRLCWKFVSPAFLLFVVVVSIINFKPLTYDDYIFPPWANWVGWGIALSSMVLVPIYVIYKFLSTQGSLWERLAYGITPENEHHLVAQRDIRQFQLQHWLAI
# [5] = biological target: Sodium-dependent serotonin transporter (Homo sapiens, UniProt P31645); experiment: Displacement of [3H]citalopram from SERT
# Sequence of Sodium-dependent serotonin transporter (P31645 whole entry): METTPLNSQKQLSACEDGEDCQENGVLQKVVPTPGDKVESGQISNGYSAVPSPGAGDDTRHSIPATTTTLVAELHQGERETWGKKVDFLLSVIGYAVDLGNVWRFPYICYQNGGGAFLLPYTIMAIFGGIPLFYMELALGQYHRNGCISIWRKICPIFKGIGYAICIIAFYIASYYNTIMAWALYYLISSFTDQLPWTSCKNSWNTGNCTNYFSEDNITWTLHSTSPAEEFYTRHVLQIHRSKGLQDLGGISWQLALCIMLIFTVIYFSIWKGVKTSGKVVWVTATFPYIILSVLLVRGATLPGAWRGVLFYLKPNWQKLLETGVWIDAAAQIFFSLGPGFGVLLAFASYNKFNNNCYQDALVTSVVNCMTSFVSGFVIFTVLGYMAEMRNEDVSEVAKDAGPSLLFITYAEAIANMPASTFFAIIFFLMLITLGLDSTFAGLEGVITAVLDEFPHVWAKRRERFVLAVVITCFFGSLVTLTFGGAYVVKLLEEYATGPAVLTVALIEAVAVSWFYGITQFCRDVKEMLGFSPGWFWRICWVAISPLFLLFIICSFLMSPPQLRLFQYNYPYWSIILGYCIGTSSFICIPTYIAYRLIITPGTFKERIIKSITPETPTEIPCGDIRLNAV
# [6] = biological target: T3, 5-hydroxytryptamine receptor 2C (Homo sapiens, UniProt P28335); experiment: Displacement of [3H]mesulergine from 5HT2C receptor
# T3 sequence (P28335 whole entry): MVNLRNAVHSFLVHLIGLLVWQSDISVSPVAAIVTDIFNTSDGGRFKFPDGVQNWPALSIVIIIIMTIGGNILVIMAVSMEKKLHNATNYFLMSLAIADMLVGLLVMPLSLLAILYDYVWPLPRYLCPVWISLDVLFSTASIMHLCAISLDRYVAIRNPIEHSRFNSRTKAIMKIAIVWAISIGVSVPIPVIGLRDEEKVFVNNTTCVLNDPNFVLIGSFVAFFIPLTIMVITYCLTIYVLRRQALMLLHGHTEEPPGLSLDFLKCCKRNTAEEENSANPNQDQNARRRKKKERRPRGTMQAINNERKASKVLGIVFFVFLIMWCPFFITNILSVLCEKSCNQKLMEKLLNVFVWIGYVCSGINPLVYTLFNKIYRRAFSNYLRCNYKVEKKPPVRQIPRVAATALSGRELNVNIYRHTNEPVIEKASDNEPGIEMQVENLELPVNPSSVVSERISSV
# [7] = biological target: T3, 5-hydroxytryptamine receptor 2C; experiment: Agonist activity at human 5HT2C receptor expressed in HEK293 cells assessed as calcium flux by FLIPR assay
# [8] = biological target: T1, 5-hydroxytryptamine receptor 2A; experiment: Displacement of [3H]ketanserin from human 5HT2A receptor
# [9] = biological target: Sodium-dependent dopamine transporter (Homo sapiens, UniProt Q01959); experiment: Displacement of [3H]WIN-35428 from DAT
# Sequence of Sodium-dependent dopamine transporter (Q01959 whole entry): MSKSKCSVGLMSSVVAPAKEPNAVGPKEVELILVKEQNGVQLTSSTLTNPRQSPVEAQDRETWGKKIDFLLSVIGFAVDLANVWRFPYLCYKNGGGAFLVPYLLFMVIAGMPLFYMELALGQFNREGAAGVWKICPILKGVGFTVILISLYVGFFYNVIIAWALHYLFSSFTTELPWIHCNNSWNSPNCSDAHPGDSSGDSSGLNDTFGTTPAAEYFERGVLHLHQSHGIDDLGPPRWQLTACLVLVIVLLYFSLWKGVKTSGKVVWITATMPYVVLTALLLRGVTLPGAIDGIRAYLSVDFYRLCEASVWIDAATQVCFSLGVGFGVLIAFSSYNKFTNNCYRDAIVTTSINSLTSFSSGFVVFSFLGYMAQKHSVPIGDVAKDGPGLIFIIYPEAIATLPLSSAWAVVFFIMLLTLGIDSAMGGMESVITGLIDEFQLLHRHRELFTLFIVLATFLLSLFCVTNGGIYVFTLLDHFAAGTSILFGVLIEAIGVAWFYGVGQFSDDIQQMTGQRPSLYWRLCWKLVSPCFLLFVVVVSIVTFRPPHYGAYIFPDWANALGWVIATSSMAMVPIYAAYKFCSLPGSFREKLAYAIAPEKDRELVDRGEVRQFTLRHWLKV
# T1 sequence (P28223 whole entry): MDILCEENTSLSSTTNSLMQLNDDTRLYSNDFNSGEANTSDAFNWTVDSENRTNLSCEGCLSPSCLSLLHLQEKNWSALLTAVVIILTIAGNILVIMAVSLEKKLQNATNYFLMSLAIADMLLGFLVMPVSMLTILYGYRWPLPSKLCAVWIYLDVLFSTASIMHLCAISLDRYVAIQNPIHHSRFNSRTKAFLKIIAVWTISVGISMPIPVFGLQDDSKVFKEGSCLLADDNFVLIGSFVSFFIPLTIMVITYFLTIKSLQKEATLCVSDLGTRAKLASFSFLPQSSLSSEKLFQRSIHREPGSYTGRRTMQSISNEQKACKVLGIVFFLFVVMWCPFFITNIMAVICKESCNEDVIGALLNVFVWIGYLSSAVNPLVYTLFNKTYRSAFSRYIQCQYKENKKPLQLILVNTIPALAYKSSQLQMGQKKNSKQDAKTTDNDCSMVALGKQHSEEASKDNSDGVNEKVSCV
smiles,measurement,setting,value
NC[C@H]1C[C@@H]1c1ccc(F)cc1Cl (relative stereo) [trans-[2-(2-Chloro-4-fluorophenyl)cyclopropyl]methylamine Hydrochloride],EC50,[1],91 nM
same,EC50,[2],22 nM
same,Ki,[3],16 nM
same,Ki,[4],> 10000 nM
same,Ki,[5],1040 nM
same,Ki,[6],203 nM
same,EC50,[7],3 nM
same,Ki,[8],254 nM
same,Ki,[9],> 10000 nM
